The values that follow come from US9187465B2, “Oxazole tyrosine kinase inhibitors” (Sareum Limited, priority 2007, dated 2015).

Usually IC50 stands for the concentration needed to halve the response being measured.

In one test the target is T1, human FLT4 (Homo sapiens, UniProt P35916).
T1 construct: a construct expressing the human FLT4 (789-1207) with an amino terminal GST tag; host or cells: Sf9 insect cells (baculovirus)
In words: FLT4 kinase assay (DELFIA enzyme inhibition). In kind it is biochemical. The conditions noted are these: read-out: FLT4 IC50. The method, then:
A GST-kinase fusion protein of 70 KDa was produced using sf9 baculovirus expression system, with a construct expressing the human FLT4 (789-1207) with an amino terminal GST tag. The protein was purified by affinity chromatography using glutathione-agarose followed by separation on a gel filtration column.
FLT4 enzyme activity is determined using a Dissociation Enhanced Lanthanide Fluorescent Immunoassay (DELFIA) with a peptide substrate derived from the MET (Tyr 1253) peptide […] with a core sequence […].
The amount of phosphorylated peptide produced is detected by means of a phospho-Tyrosine specific Europium-labelled antibody using Time-Resolved Fluorescence at Excitation 360-35 nm and Emission 620-35 nm.
Assay reactions are set up in a 25 uL final volume on a 96 well plate. […] The reaction is allowed to proceed for 30 minutes at room temperature before stopping with 100 uL Stop solution comprising of 100 mM EDTA, 1×BSA blocker in TBS (Perbio) and 0.05% Surfact-Amps20 (Perbio).
The stopped reaction is transferred to a black 96-well Neutravidin-coated plate (Perbio) and incubated for 30 minutes to capture the biotinylated peptide substrate. After washing wells 3 times with 200 uL TBS/T buffer, Anti-Phospho-Tyr-100 antibody labelled with Eu—N1 (Perkin Elmer AD0159) is added to all wells for 60 minutes at room temperature. After a repeat washing step, DELFIA Enhancement solution (Perkin Elmer) is added to all wells for 5 minutes and the fluorescence measured on a plate reader Analyst HT (Molecular Devices).
The % inhibition of the activity is calculated and plotted in order to determine the concentration of test compound required to inhibit 50% of the enzyme activity (IC50).

The next test deals with T2, human Aurora A (Homo sapiens, UniProt O14965).
T2 construct: Histidine tag (N); host or cells: Sf9 insect cells (baculovirus)
T2 sequence (O14965 1-403): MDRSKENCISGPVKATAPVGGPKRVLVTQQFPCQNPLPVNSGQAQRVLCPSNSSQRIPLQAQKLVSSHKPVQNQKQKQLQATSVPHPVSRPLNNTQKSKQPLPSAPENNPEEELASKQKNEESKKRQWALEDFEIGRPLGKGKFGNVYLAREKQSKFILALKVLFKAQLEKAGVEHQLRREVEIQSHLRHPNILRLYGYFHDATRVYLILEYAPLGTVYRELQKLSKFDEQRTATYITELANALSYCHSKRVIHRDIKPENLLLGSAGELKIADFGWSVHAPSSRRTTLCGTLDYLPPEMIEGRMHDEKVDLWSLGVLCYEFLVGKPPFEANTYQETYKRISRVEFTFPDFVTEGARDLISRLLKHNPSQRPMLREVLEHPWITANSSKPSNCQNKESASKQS
Briefly: Aurora A kinase assay (DELFIA enzyme inhibition). In kind it is biochemical. The conditions noted are these: read-out: Aurora A IC50. How it is done:
The protein was purified by one-step affinity chromatography using nickel-agarose […]
Assay reactions are set up in a 25 uL final volume on a 96 well plate. […] The reaction is allowed to proceed for 30 minutes at room temperature before stopping with 100 μL Stop solution comprising of 100 mM EDTA, 1×BSA blocker in TBS (Perbio) and 0.05% Surfact-Amps20 (Perbio).
The stopped reaction is transferred to a black 96-well Neutravidin-coated plate (Perbio) and incubated for 30 minutes to capture the biotinylated peptide substrate. […] After repeating the washing step, the plate is further incubated for one hour with Europium-labelled anti-rabbit antibody (Perkin Elmer AD0105). The wash step is repeated for a final time before DELFIA Enhancement solution (Perkin Elmer) is added to all wells for 5 minutes and the fluorescence measured on a plate reader Analyst HT (Molecular Devices).

Some results are limits rather than exact numbers.

T1 sequence (P35916 789-1207): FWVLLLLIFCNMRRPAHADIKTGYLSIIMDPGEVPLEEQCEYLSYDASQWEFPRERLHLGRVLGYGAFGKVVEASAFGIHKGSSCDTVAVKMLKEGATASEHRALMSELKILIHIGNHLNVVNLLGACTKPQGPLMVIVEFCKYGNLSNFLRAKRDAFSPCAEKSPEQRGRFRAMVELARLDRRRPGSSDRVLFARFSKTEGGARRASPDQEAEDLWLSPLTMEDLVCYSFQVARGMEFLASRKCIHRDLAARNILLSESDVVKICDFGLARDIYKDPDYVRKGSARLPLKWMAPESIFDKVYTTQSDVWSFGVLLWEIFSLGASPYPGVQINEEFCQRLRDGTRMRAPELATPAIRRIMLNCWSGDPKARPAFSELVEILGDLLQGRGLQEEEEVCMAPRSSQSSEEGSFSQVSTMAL

As for `NC(=O)c1ccc(-c2oc(-c3c(F)cccc3F)nc2C(N)=O)cc1` [Example F-17, 5-(4-carbamoylphenyl)-2-(2,6-difluorophenyl)oxazole-4-carboxamide], the IC50 on human FLT4 and at human Aurora A was less than 10 µM throughout.

In the case of `CC(=O)Nc1ccc(-c2oc(-c3c(F)cccc3F)nc2C(N)=O)cc1` [Example F-23, 5-(4-acetamidophenyl)-2-(2,6-difluorophenyl)oxazole-4-carboxamide], the half-maximal inhibitory concentration (IC50) at human FLT4 is less than 10 µM; on human Aurora A it was less than 100 µM.

Consider `NC(=O)c1nc(-c2c(F)cccc2F)oc1-c1cccc(C(=O)N2CCCCC2)c1` [Example F-31, 2-(2,6-Difluorophenyl)-5-(3-(piperidine-1-carbonyl)phenyl)oxazole-4-carboxamide], for which the IC50 at human FLT4 was less than 10 µM; at human Aurora A, less than 100 µM.

As to `NC(=O)c1nc(-c2c(F)cccc2F)oc1-c1ccc(NCCN2CCCCC2)cc1` [Example F-32, 2-(2,6-difluorophenyl)-5-(4-(2-(piperidin-1-yl)ethylamino)phenyl)oxazole-4-carboxamide], the IC50 on human FLT4 and at human Aurora A was less than 10 µM each time.

Regarding `CN(C)CCNc1ccc(-c2oc(-c3c(F)cccc3F)nc2C(N)=O)cc1` [Example F-33, 2-(2,6-difluorophenyl)-5-(4-(2-(dimethylamino)ethylamino)phenyl)oxazole-4-carboxamide], the IC50 on human FLT4 and at human Aurora A was less than 10 µM each time.

Turning to `NC(=O)c1nc(-c2c(F)cccc2F)oc1-c1ccc(NCCN2CCOCC2)cc1` [Example F-34, 2-(2,6-difluorophenyl)-5-(4-(2-morpholinoethylamino)phenyl)oxazole-4-carboxamide], the IC50 on human FLT4 and at human Aurora A was less than 10 µM throughout.

As to `NC(=O)c1nc(-c2cccnc2)oc1-c1ccc(N2CCNCC2)cc1` [Example M-13, 5-(4-(piperazin-1-yl)phenyl)-2-(pyridin-3-yl)oxazole-4-carboxamide], the IC50 at human FLT4 and on human Aurora A was less than 10 µM in each case.

In the case of `NC(=O)c1nc(-c2ccncc2)oc1-c1ccc(N2CCNCC2)cc1` [Example M-14, 5-(4-(piperazin-1-yl)phenyl)-2-(pyridin-4-yl)oxazole-4-carboxamide], the IC50 on human FLT4 and at human Aurora A was less than 10 µM throughout.

Take `NC(=O)c1nc(-c2ccc3[nH]ccc3c2)oc1-c1ccc(N2CCNCC2)cc1` [Example M-15, 2-(1H-indol-5-yl)-5-(4-(piperazin-1-yl)phenyl)oxazole-4-carboxamide]: the IC50 on human FLT4 and at human Aurora A was less than 10 µM each time.

Take `NC(=O)c1nc(-c2ccc3cc[nH]c3c2)oc1-c1ccc(N2CCNCC2)cc1` [Example M-16, 2-(1H-indol-6-yl)-5-(4-(piperazin-1-yl)phenyl)oxazole-4-carboxamide]: the IC50 at human FLT4 and on human Aurora A was less than 10 µM in each case.

In the case of `NC(=O)c1nc(-c2ccnc3[nH]ccc23)oc1-c1ccc(N2CCNCC2)cc1` [Example M-18, 5-(4-(piperazin-1-yl)phenyl)-2-(1H-pyrrolo[2,3-b]pyridin-4-yl)oxazole-4-carboxamide], the IC50 at human FLT4 and at human Aurora A was less than 10 µM each time.

As to `COc1ccc(-c2oc(-c3cc[nH]n3)nc2C(N)=O)cc1` [Example N-1, 5-(4-methoxyphenyl)-2-(1H-pyrazol-5-yl)oxazole-4-carboxamide], the IC50 on human FLT4 and at human Aurora A was less than 10 µM throughout.

With `COc1ccc(-c2oc(-c3cccc(C)c3)nc2C(N)=O)cc1` [Example N-10, 5-(4-methoxyphenyl)-2-m-tolyloxazole-4-carboxamide], the IC50 at human FLT4 and on human Aurora A was less than 100 µM in each case.

Consider `NC(=O)c1nc(-c2c(F)cccc2F)oc1Nc1ccccc1` [Example O-1, 2-(2,6-difluorophenyl)-5-(phenylamino)oxazole-4-carboxamide], for which the half-inhibitory concentration (IC50) on human FLT4 and at human Aurora A was less than 10 µM in each case.

On to `CS(=O)(=O)c1cccc(Nc2oc(-c3c(F)cccc3F)nc2C(N)=O)c1` [Example Q-4, 2-(2,6-difluorophenyl)-5-(3-(methylsulfonyl)phenylamino)oxazole-4-carboxamide], for which the IC50 on human FLT4 and at human Aurora A was less than 10 µM in each case.

For the molecule `COc1ccccc1Nc1oc(-c2c(F)cccc2F)nc1C(N)=O` [Example Q-5, 2-(2,6-difluorophenyl)-5-(2-methoxyphenylamino)oxazole-4-carboxamide], the 50% inhibitory concentration (IC50) at human FLT4 is less than 10 µM; on human Aurora A, less than 100 µM.

On to `COc1cccc(Nc2oc(-c3c(F)cccc3F)nc2C(N)=O)c1` [Example Q-6, 2-(2,6-difluorophenyl)-5-(3-methoxyphenylamino)oxazole-4-carboxamide], for which the IC50 on human FLT4 and on human Aurora A was less than 100 µM throughout.

For `NC(=O)c1nc(-c2c(F)cccc2F)oc1Nc1ccc(N2CCC(N)CC2)cc1` [Example Q-17, 5-(4-(4-aminopiperidin-1-yl)phenylamino)-2-(2,6-difluorophenyl)oxazole-4-carboxamide], the half-inhibitory concentration (IC50) at human FLT4 and on human Aurora A was less than 10 µM in each case.

With `NCC1CCN(c2ccc(Nc3oc(-c4c(F)cccc4F)nc3C(N)=O)cc2)CC1` [Example Q-18, 5-(4-(4-(aminomethyl)piperidin-1-yl)phenylamino)-2-(2,6-difluorophenyl)oxazole-4-carboxamide], the IC50 at human FLT4 and at human Aurora A was less than 10 µM each time.

Consider `COc1ccc(Nc2oc(-c3c(F)cccc3F)nc2C(N)=O)cc1OC` [Example Q-39, 2-(2,6-difluorophenyl)-5-(3,4-dimethoxyphenylamino)oxazole-4-carboxamide], for which the results for the IC50 at human FLT4 and on human Aurora A were less than 10 µM and less than 100 µM, respectively.

Regarding `NC(=O)c1nc(-c2c(F)cccc2F)oc1Nc1ccc2c(c1)OCO2` [Example Q-41, 5-(benzo[d][1,3]dioxol-5-ylamino)-2-(2,6-difluorophenyl)oxazole-4-carboxamide], the concentration for half-maximal inhibition (IC50) at human FLT4 and at human Aurora A was less than 100 µM each time.

As for `NC(=O)c1nc(-c2c(F)cccc2F)oc1Nc1ccc(OC(F)(F)F)cc1` [Example Q-42, 2-(2,6-difluorophenyl)-5-(4-(trifluoromethoxy)phenylamino)oxazole-4-carboxamide], the IC50 is less than 10 µM at human FLT4 and less than 100 µM on human Aurora A.

Consider `CS(=O)(=O)c1ccc(Nc2oc(-c3c(F)cccc3F)nc2C(N)=O)c(F)c1` [Example Q-43, 2-(2,6-difluorophenyl)-5-(2-fluoro-4-(methylsulfonyl)phenylamino)oxazole-4-carboxamide], for which the IC50 is less than 10 µM on human FLT4 and less than 100 µM at human Aurora A.

With `CS(=O)(=O)c1ccc(F)c(Nc2oc(-c3c(F)cccc3F)nc2C(N)=O)c1` [Example Q-44, 2-(2,6-difluorophenyl)-5-(2-fluoro-5-(methylsulfonyl)phenylamino)oxazole-4-carboxamide], the IC50 was less than 10 µM on human FLT4 and less than 100 µM at human Aurora A.

As to `NC(=O)c1nc(-c2c(F)cccc2F)oc1Nc1cccnc1` [Example Q-45, 2-(2,6-difluorophenyl)-5-(pyridin-3-ylamino)oxazole-4-carboxamide], the IC50 at human FLT4 and at human Aurora A was less than 10 µM throughout.

Turning to `NC(=O)c1nc(-c2c(F)cccc2F)oc1Nc1ccc(C2CCNCC2)cc1` [Example Q-46, 2-(2,6-difluorophenyl)-5-(4-(piperidin-4-yl)phenylamino)oxazole-4-carboxamide], the IC50 at human FLT4 and on human Aurora A was less than 10 µM throughout.

Regarding `NC(=O)c1nc(-c2c(F)cccc2F)oc1Nc1ccc(N2CCOCC2)nc1` [Example Q-48, 2-(2,6-difluorophenyl)-5-(6-morpholinopyridin-3-ylamino)oxazole-4-carboxamide], the IC50 on human FLT4 and on human Aurora A was less than 10 µM in each case.
